This is an account of results in patent US20230356105A1, “TETRAAZADODECANE BASED CHELATING AGENTS FOR SEPARATION OF RARE EARTH ELEMENTS AND METHOD THEREFOR” (Ustav Organicke Chemie a Biochemie AV CR V.V.I., priority 2020, published 2023).

“And” between values parts separate entries of the source, which are not always exact repeats. Equal values may be shown once. Read-outs that look alike come from different tables or passages of the source.

Common to all, as to format: physicochemical
The nature of series [1]: Removal of additive from remaining solution after precipitation by ultrafiltration (Example 25).
A short description of series [2]: Use of additives to improve separation of Nd/Dy mixture by precipitation with L5 (Example 18). The settings on record: 11 mM L5. Here is the method: Stock solutions were pipetted into plastic 1×1 cm cuvettes to prepare reaction mixtures with concentrations as follows: • 1. […] 5 mM NdCl3 • 3. 5 mM DyCl3 • 4. 500 mM MOPS pH=7 • 5. the additive of interest, in a variable concentration; if possible, stock solutions were prepared from Na^+ salt forms of the compound; if not, the stock solutions were titrated by NaOH/HCl to pH=7 prior to addition (see Table 12 for additives and concentrations)
These aqueous reaction mixtures, each prepared to a total volume of 2.0 mL with the addition of water as necessary, were mixed by the use of a PTFE-coated stir bar on a magnetic stirrer. The cuvettes were sealed with transparent tape to prevent evaporation overnight. The reaction mixtures were stirred for 18 hours, at which point 500 μL aliquots of each reaction mixture were transferred into plastic 2 mL Eppendorf tubes and centrifuged. The supernatants were carefully pipetted out and transferred to a new set of tubes. The precipitate was dissolved by addition of 500 μL 1M HCl. The absolute concentration of Nd and Dy in each supernatant and precipitate was determined by ICP-OES.

Series [3] is described as follows: Separation of Tb/Lu mixture by precipitation using L4 (Example 16). The settings on record: for Precipitate concentration [mM] Lu / Precipitate concentration [mM] Tb: dissolved to 150 μL. Here is the method:
The experiment was conducted according to Example 24, with 3 identical reaction mixtures containing Tb, Lu, and compound L4. The experimental procedure was identical to that of Example 24 with the difference being that the dissolution of the precipitate in 100 μL, 1 M HCl was achieved within several minutes. The resulting absolute concentrations of both metals in the supernatants and precipitates, as well as calculated values of the separation factor […] according to formula from Example 11), are summarized in Table 10. […] The average separation factor value was 27.

The nature of series [4]: Separation of industrially relevant binary mixtures by precipitation using L1, L2 and L3 (Example 10). The settings on record: supernatant. As to the method: Analogous to Example 7), three sets of reaction mixtures with two metals and either compound L1, L2, or L3 were prepared in a 96-well plate with the following differences: each well was equipped with one PTFE-coated magnetic stir bar, the well plate was sealed with a silicon cover, and the reaction mixtures were stirred on a magnetic stirrer for 2 days at room temperature. Analogous to Example 7), the well plate was then centrifuged and concentrations of the metals were determined using ICP-OES. […] It is evident from the results that certain degrees of enrichment are achieved for very different combinations of metals, and that ligands L1, L2, and L3 have different selectivities for given combinations of metals.

The nature of series [5]: Separation of Y/Tb mixture by repeated precipitation using L2 (Example 14). The settings on record: for Precipitate concentration [mM] Tb / Precipitate concentration [mM] Y: dissolved to 200 μL. Here is the method:
The experiment was conducted according to Example 11) with 9 identical reaction mixtures containing Y, Tb, and compound L2. The experimental procedure was identical to that of Example 11). The resulting absolute concentrations of both metals in the supernatants and precipitates, as well as calculated values of separation factor Y/Tb according to the formula from Example 11), are summarized in Table 8. The average separation factor value was 3.34.

The mark [6] stands for this setting: group A, 1st precipitation, mean.
Setting [7] is: group B, 2nd precipitation, mean.

Regarding `CC(C)(O)C(=O)O` [α-HIBA, alpha-hydroxyisobutyric acid], in series [1] (initial [additive] 30.4 mM), the “% of initial [additive] in filtrate” value came to 3%. In series [2] (additive 5 mM), the “Precipitate concentration [mM] Dy” value was determined as 2.59 mM, the “Precipitate concentration [mM] Nd” value is given as 4.32 mM, the “Supernatant concentration [mM] Dy” value came out at 1.55 mM and the “Supernatant concentration [mM] Nd” value came out at 0.10 mM. Further, in series [2] (additive 10 mM), the “Precipitate concentration [mM] Dy” value amounted to 1.50 mM, the “Precipitate concentration [mM] Nd” value was 4.03 mM, the “Supernatant concentration [mM] Dy” value is 3.03 mM and the “Supernatant concentration [mM] Nd” value worked out at 0.19 mM. In series [2] (additive 15 mM), the “Precipitate concentration [mM] Dy” value stood at 1.18 mM, the “Precipitate concentration [mM] Nd” value is listed as 4.33 mM, the “Supernatant concentration [mM] Dy” value was determined as 3.37 mM and the “Supernatant concentration [mM] Nd” value was 0.33 mM. Further, in series [2] (additive 20 mM), the “Precipitate concentration [mM] Dy” value is on record as 0.81 mM, the “Precipitate concentration [mM] Nd” value was 3.78 mM, the “Supernatant concentration [mM] Dy” value is reported as 3.69 mM and the “Supernatant concentration [mM] Nd” value amounted to 0.60 mM.

Turning to `CC(=O)O` [acetate], in series [1] (initial [additive] 76 mM), the “% of initial [additive] in filtrate” value was determined as 83%. Moreover, in series [2] (additive 50 mM), the “Precipitate concentration [mM] Dy” value was 2.43 mM, the “Precipitate concentration [mM] Nd” value was found to be 4.97 mM, the “Supernatant concentration [mM] Dy” value was 3.05 mM and the “Supernatant concentration [mM] Nd” value is given as 0.33 mM. In series [2] (additive 100 mM), the “Precipitate concentration [mM] Dy” value was found to be 1.74 mM, the “Precipitate concentration [mM] Nd” value is recorded as 4.85 mM, the “Supernatant concentration [mM] Dy” value is given as 3.74 mM and the “Supernatant concentration [mM] Nd” value was determined as 0.30 mM. Moreover, in series [2] (additive 250 mM), the “Precipitate concentration [mM] Dy” value is given as 1.05 mM, the “Precipitate concentration [mM] Nd” value turned out to be 4.04 mM, the “Supernatant concentration [mM] Dy” value was 4.37 mM and the “Supernatant concentration [mM] Nd” value was found to be 1.17 mM. Further, in series [2] (additive 500 mM), the “Precipitate concentration [mM] Dy” value was determined as 0.49 mM, the “Precipitate concentration [mM] Nd” value amounted to 0.52 mM, the “Supernatant concentration [mM] Dy” value was 4.69 mM and the “Supernatant concentration [mM] Nd” value is on record as 4.62 mM.

With `O=C(O)CN1CCN(CC(=O)O)CCN(Cc2ccc3ccccc3c2)CCN(CC(=O)O)CC1` [L4, 2,2′,2″-(10-(naphthalene-2-ylmethyl)-1,4,7,10-tetraazacyklododekane-1,4,7-triyl)triacetic acid], in series [3], the “Supernatant concentration [mM] Lu” value was 4.26 mM and 4.07 mM and 4.18 mM; the “Supernatant concentration [mM] Tb” value was 1.08 mM and 0.93 mM and 1.19 mM; the “Precipitate concentration [mM] Lu” value is 0.51 mM and 0.61 mM and 0.47 mM; the “Precipitate concentration [mM] Tb” value is 3.74 mM and 3.73 mM and 3.28 mM. In series [3] (mean), the “Precipitate concentration [mM] Lu” value is listed as 0.53 mM, the “Precipitate concentration [mM] Tb” value is 3.59 mM, the “Supernatant concentration [mM] Lu” value stood at 4.17 mM and the “Supernatant concentration [mM] Tb” value is reported as 1.07 mM.

Take `O=C(O)c1ccccc1` [benzoic acid]: the “% of initial [additive] in filtrate” value in series [1] (initial [additive] 76 mM) was determined as 43%. Moreover, the “Precipitate concentration [mM] Dy” value in series [2] (additive 20 mM) came to 3.83 mM; in series [2] (additive 50 mM), 1.81 mM; in series [2] (additive 100 mM), 0.97 mM; in series [2] (additive 150 mM) it was 0.68 mM; in series [2] (additive 200 mM), 0.53 mM; in series [2] (additive 250 mM), 0 mM. Also, the “Precipitate concentration [mM] Nd” value in series [2] (additive 20 mM) is 4.94 mM; in series [2] (additive 50 mM), 4.66 mM; in series [2] (additive 100 mM), 4.60 mM; in series [2] (additive 150 mM), 3.96 mM; in series [2] (additive 200 mM) it was 1.65 mM; in series [2] (additive 250 mM) it was 0 mM. Further, the “Supernatant concentration [mM] Dy” value was found to be 1.09 mM in series [2] (additive 20 mM); 2.69 mM in series [2] (additive 50 mM); 4.03 mM in series [2] (additive 100 mM); 4.34 mM in series [2] (additive 150 mM); 4.20 mM in series [2] (additive 200 mM); 5 mM in series [2] (additive 250 mM). Moreover, the “Supernatant concentration [mM] Nd” value was 0.13 mM in series [2] (additive 20 mM); 0.10 mM in series [2] (additive 50 mM); 0.49 mM in series [2] (additive 100 mM); 1.03 mM in series [2] (additive 150 mM); 2.89 mM in series [2] (additive 200 mM); 5 mM in series [2] (additive 250 mM).

Turning to `O=C(O)CN1CCNCCN(CC(=O)O)CCN(Cc2cc([N+](=O)[O-])ccc2O)CC1` [L2, 2,2′(4-(2-hydroxy-5-nitrobenzyl)-1,4,7,10-tetraazacyclododecane-1,7-diyl)Diacetic Acid], the “[mM] M1” value in series [4] (M1/M2=Eu/Y) was found to be 1.363 mM; in series [4] (M1/M2=La/Ce), 0.175 mM; in series [4] (M1/M2=Nd/Ce) it was 0.425 mM; in series [4] (M1/M2=Nd/Dy), 1.757 mM; in series [4] (M1/M2=Nd/La) it was 0.263 mM; in series [4] (M1/M2=Nd/Pr) it was 2.303 mM. In addition, the “[mM] M1” value in series [4] (M1/M2=Nd/Tb) is on record as 1.532 mM; in series [4] (M1/M2=Pr/Ce), 0.162 mM; in series [4] (M1/M2=Pr/Dy), 2.417 mM; in series [4] (M1/M2=Pr/La), 0.172 mM; in series [4] (M1/M2=Tb/Dy), 1.054 mM; in series [4] (M1/M2=Tb/Eu) it was 1.182 mM. The “[mM] M1” value was 1.945 mM in series [4] (M1/M2=Tb/Pr) and 1.615 mM in series [4] (M1/M2=Tb/Y). In addition, the “[mM] M2” value in series [4] (M1/M2=Eu/Y) was 2.814 mM; in series [4] (M1/M2=La/Ce) it was 0.158 mM; in series [4] (M1/M2=Nd/Ce) it was 0.779 mM; in series [4] (M1/M2=Nd/Dy), 1.970 mM; in series [4] (M1/M2=Nd/La), 0.128 mM; in series [4] (M1/M2=Nd/Pr), 2.352 mM. The “[mM] M2” value in series [4] (M1/M2=Nd/Tb) stood at 1.438 mM; in series [4] (M1/M2=Pr/Ce), 0.171 mM; in series [4] (M1/M2=Pr/Dy), 2.422 mM; in series [4] (M1/M2=Pr/La), 0.163 mM; in series [4] (M1/M2=Tb/Dy) it was 2.708 mM; in series [4] (M1/M2=Tb/Eu), 0.956 mM. The results for the “[mM] M2” value in series [4] (M1/M2=Tb/Pr) and in series [4] (M1/M2=Tb/Y) were 2.156 mM and 2.812 mM, respectively. Besides, the “Supernatant concentration [mM] Tb” value was 1.70 mM and 1.85 mM and 1.74 mM in series [5] (group A, 1st precipitation); 1.76 mM in series [5] (setting [6]); 0.79 mM and 1.15 mM and 0.97 mM in series [5] (group B, 2nd precipitation). The “Supernatant concentration [mM] Y” value in series [5] (group A, 1st precipitation) was 4.25 mM and 4.36 mM and 4.12 mM; in series [5] (setting [6]) it was 4.24 mM; in series [5] (group B, 2nd precipitation), 1.42 mM and 1.52 mM and 1.48 mM; in series [5] (setting [7]), 1.47 mM. For the same compound, the “Precipitate concentration [mM] Tb” value in series [5] (group A, 1st precipitation) is 8.05 mM and 7.82 mM and 7.70 mM; in series [5] (setting [6]) it was 7.86 mM; in series [5] (group B, 2nd precipitation) it was 6.95 mM and 5.71 mM and 6.60 mM; in series [5] (setting [7]), 6.42 mM. Moreover, the “Precipitate concentration [mM] Y” value in series [5] (group A, 1st precipitation) is 5.45 mM and 5.23 mM and 5.52 mM; in series [5] (setting [6]), 5.40 mM; in series [5] (group B, 2nd precipitation), 3.87 mM and 2.86 mM and 3.57 mM; in series [5] (setting [7]) it was 3.43 mM.
